Like-named read-outs stand apart in the source and are kept apart here.
Tests used:
[1] = tested on: ^3 H-Dopamine release, rat striatal slices; test: Ligand-stimulated ^3 H-dopamine release from rat striatal slices; format: cell-based
Description: (§1) Measurement of ^3 H-dopamine release from rat striatal slices was performed according to the method of Sacaan et al. (J. Neurochem. 59:245 (1992)). Male Sprague-Dawley rats (250-300 g) were decapitated and the striata or olfactory tubercles dissected quickly on a cold glass surface. The tissue was chopped to a thickness of 300 μm with a McIlwain tissue chopper. After chopping again at right angles the tissue was dispersed and incubated for 10 min. at 37° C. in oxygenated Kreb's buffer. ^3 H-Dopamine (40 Ci/mmol, NEN- Dupont, Boston, Mass.) was added (50 nM) and the tissue was incubated for 30 min. in Kreb's buffer containing 10 μM pargyline and 0.5 mM ascorbic acid. Aliquots of the minced tissue were then transferred to chambers of a Brandel Superfusion system in which the tissue was supported on Whatman GF/B filter discs. The tissue was then superfused with buffer at a constant flow rate of 0.3 ml/min by means of a Brandel peristaltic pump. The perfusate was collected in plastic scintillation vials in 3-min fractions, and the radioactivity was estimated by scintillation spectrophotometry. The superfusate for the first 120 min was discarded. After two baseline fractions had been collected, the superfusion buffer was switched to fresh buffer with or without compound of interest. At the end of the experiment the filter and the tissue were removed, and the radiolabeled neurotransmitter content was estimated after extraction into scintillation fluid. The fractional efflux of radiolabeled neurotransmitter was estimated as the amount of radioactivity in the perfusate fraction relative to the total amount in the tissue.
(§2) Results of studies of the effects of an invention compound (as compared to the effect of nicotine) on the release of neurotransmitters from rat brain slices are presented in Table II. Results presented in Part A of the Table are expressed as the percent fractional release and results presented in Part B of the Table are expressed as a percentage, relative to nicotine response.

[2] = tested on: ^3 H-Norepinephrine release, rat prefrontal cortex slices; test: Ligand-stimulated ^3 H-norepinephrine release from rat prefrontal cortex slices; format: cell-based; conditions: in vitro slices, 300 μM
Description: as §1
(§3) Following essentially the same procedure as set forth above, the amount of ^3 H-norepinephrine released from rat hippocampus, thalamus and prefrontal cortex slices superfused with buffer containing (or lacking) compounds of interest was also measured.
as §2

[3] = tested on: ^3 H-Dopamine release, rat olfactory tubercles; test: Ligand-stimulated ^3 H-dopamine release from rat olfactory tubercles; format: cell-based; conditions: Nicotine concentration was 100 μM
Description: as §1, §2

[4] = tested on: rats; test: Locomotor activity assay; format: in vivo, rat (male Sprague-Dawley); conditions: Rattus norvegicus, sc, 1 mg/kg salt, s.c.
Description: This assay can be used to assess the primary effect of a compound on general motor activity. A decrease in locomotor activity is indicative of a possible sedative effect on the animal, whereas an increase in locomotor activity is indicative of a stimulant effect on the animal.
Locomotor activity of rats (male Sprague-Dawley (Harlan) weighing 200-250 gm) was measured for 2 hrs in photocell cages immediately after administration of the invention compound. Prior to the test day, the animals were placed in the activity cages for 3 hrs to familiarize them with the experimental environment. On the test day, the animals were placed in the photocell cages and then injected with compound 1.5 hrs later.
The photocell cages were standard rodent cages (30 cm×20 cm×40 cm) with four infrared beams crossing the long axis. The animals were under no motivational constraints and were free to move around. Movements from one infrared beam to another (ambulation) were called "crossover"; successive interruptions of the same beam (vertical and other movements such as grooming) were called "general activity."

[5] = tested on: ^3 H-Norepinephrine release, rat hippocampus slices; test: Ligand-stimulated ^3 H-norepinephrine release from rat hippocampus slices; format: cell-based
Description: as §1, §3, §2

[6] = tested on: rats with unilateral 6-hydroxydopamine lesions of the nigrostriatal dopamine pathway; format: in vivo, rat (male Sprague-Dawley); conditions: rat, in vivo
Description: Selective lesions of the brain dopamine pathway using the neurotoxin 6-hydroxydopamine (6-OHDA) in rats can be used as an experimental approach to Parkinson's disease. Unilateral lesions of the nigrostriatal dopamine pathway induce a postural asymmetry which becomes manifested as rotation when the animals are activated by dopamine releasers or dopamine agonists. When amphetamine and other stimulant drugs that induce pre-synaptic release of dopamine from intact nerve terminals are administered, the rats rotate in a direction ipsilateral to the lesion. In contrast, when the rats are injected with post-synaptic dopamine receptor agonists, such as apomorphine, they turn in a contralateral direction, due to the development of supersensitive dopamine receptors in the lesioned side. Thus, the 6-OHDA model can be used to determine if a suspected dopaminergic agent is active, and to differentiate whether such action is pre- or post-synaptic.
The effects of invention compounds on rotational behavior in 6-hydroxydopamine denervated rats were evaluated using the procedure of Ungerstedt and Arbutknott, Brain Res. 24:485-493 (1970). Male Sprague-Dawley rats (Zivic Miller) weighing 170-200 gm were used in the 6-OHDA procedure. The ascending nigrostriatal dopamine pathway was lesioned by unilateral stereotaxic injection of 6-OHDA (8.0 μg) into one substantia nigra. All injections of 6-OHDA were preceded by desmethylimipramine (25 mg/kg i.p.) and pargyline (75 mg/kg i.p.) approximately 30 minutes prior to undergoing stereotaxic surgery for 6-OHDA infusion into the substantia nigra. After one week of recovery from surgery, the effectiveness of the lesions was verified by noting the response of the animals to apomorphine (0.2 mg/kg, s.c.). Only rats with a minimum rate of 80 contralateral turns per 30 minutes (a sign of more than 80-90% dopamine depletion after a 6-OHDA lesion) were used. Two weeks later, the selected rats were tested with invention and reference compounds using an automated rotometer system to record the number and direction of rotations. In order to distinguish spontaneous (non-specific)rotations from induced rotations (specific to the effect of the drug), each rat was used as its own control, employing the following procedure:
The rat was placed in the rotometer system for acclimatation for 15 minutes, the vehicle administered subcutaneously, the rat's rotations recorded for one hour, then test compound was administered s.c. and rotations again recorded for one hour. The number of ipsilateral rotations induced by vehicle was then compared to the number of ipsilateral rotations induced by test compound. Statistical analysis of the data was carried out using Student's t-test (paired).

[7] = tested on: ^3 H-Norepinephrine release, rat thalamus slices; test: Ligand-stimulated ^3 H-norepinephrine release from rat thalamus slices; format: cell-based; conditions: Nicotine concentration was 100 μM
Description: as §1, §3, §2

SMILES: CN1CCCC1c1cccnc1 (stereo not drawn) [Nicotine, nicotine, reference compound]
- percent fractional release, ^3 H-Dopamine, Striatum ([1]; Nicotine concentration was 100 μM): 1.84%
- Emax at 10 µM ([1]; Rattus norvegicus, nicotine itself at 10 μM (reference), read-out: % of Nicotine Response, ^3 H-Dopamine, Striatum): 100%
- percent fractional release, ^3 H-Norepinephrine, Prefrontal Cortex [2]: 2.32%
- percent fractional release, ^3 H-Dopamine, Olfactory Tubercles [3]: 5.61%
- change in vivo at 1 mg/kg ([4]; 1 h, 0-60 min, read-out: Ambulation (cross overs), percent of change from control): 169%
- change in vivo at 1 mg/kg ([4]; 1 h, 0-60 min, read-out: General Activity (beam breaks), percent of change from control): 27%
- change in vivo at 1 mg/kg ([4]; 2 h, 60-120 min, read-out: Ambulation (cross overs), percent of change from control): 163%
- change in vivo at 1 mg/kg ([4]; 2 h, 60-120 min, read-out: General Activity (beam breaks), percent of change from control): 71%
- Emax at 300 µM ([5]; Rattus norvegicus, nicotine 300 μM = 100, read-out: % of Nicotine Response, ^3 H-Norepinephrine, Hippocampus): 100%
- percent fractional release, ^3 H-Norepinephrine, Hippocampus ([5]; in vitro slices, 300 μM): 6.19%
- Percent change from control (ipsilateral rotations) [6]: +357
- percent fractional release, ^3 H-Norepinephrine, Thalamus [7]: 1.83%
